Key:
[1] = molecular target: Protein arginine N-methyltransferase 6 (Homo sapiens) (UniProt Q96LA8); assay: Inhibition of PRMT6 (unknown origin) at 10 uM using SAM as substrate measured up to 960 mins by AlphaScreen microplate reader assay relative to control; conditions: time min <=960
[2] = molecular target: Histone-lysine N-methyltransferase, H3 lysine-36 specific (Homo sapiens) (UniProt Q96L73); assay: Inhibition of NSD1 (unknown origin) at 10 uM using SAM as substrate measured up to 960 mins by AlphaScreen microplate reader assay relative to control; conditions: time min <=960
[3] = molecular target: N-lysine methyltransferase SMYD2 (Homo sapiens) (UniProt Q9NRG4); assay: Inhibition of SMYD2 (unknown origin) at 10 uM using SAM as substrate measured up to 960 mins by AlphaScreen microplate reader assay relative to control; conditions: time min <=960
[4] = molecular target: Histone-lysine N-methyltransferase EZH1 (Homo sapiens) (UniProt Q92800); assay: Inhibition of EZH1 (unknown origin) at 10 uM using SAM as substrate measured up to 960 mins by AlphaScreen microplate reader assay relative to control; conditions: time min <=960
[5] = system: Histone-lysine N-methyltransferase EZH2 (Homo sapiens), Q15910 [A677G]; assay: Inhibition of EZH2 A677G mutant (unknown origin) at 10 uM using SAM as substrate measured up to 960 mins by AlphaScreen microplate reader assay relative to control; conditions: time min <=960
Pfeiffer = assay: Antitumor activity against human Pfeiffer cells harboring EZH2 A677G mutant xenografted in NCG mouse assessed as tumor growth inhibition at 100 mg/kg, po BID via gavage measured after 28 days relative to control; assay type: functional; conditions: 672 h, time 28 day, read-out: TGI
KARPAS-422 [6] = assay: Antitumor activity against human KARPAS-422 cells harboring EZH2 Y641N mutant xenografted in NCG mouse assessed as tumor growth inhibition at 50 mg/kg, po BID via gavage measured after 28 days relative to control; assay type: functional; conditions: KARPAS-422, po, 672 h, time 28 day, read-out: TGI
[7] = Oral bioavailability in mouse at 10 mg/kg measured up to 24 hrs by LC-MS/MS analysis; assay type: ADME, organism-based; conditions: in vivo
[8] = Cmax in mouse at 1 mg/kg, iv measured up to 24 hrs by LC-MS/MS analysis; assay type: ADME, organism-based; parameters: route intravenous, dose 1 mg/kg, time <=24; conditions: in vivo
[9] = AUC (0 to t) in mouse at 1 mg/kg, iv measured up to 24 hrs by LC-MS/MS analysis; assay type: ADME, organism-based; parameters: route intravenous, dose 1 mg/kg, time <=24; conditions: in vivo
KARPAS-422 [10] = assay: Antitumor activity against human KARPAS-422 cells harboring EZH2 Y641N mutant xenografted in NCG mouse assessed as change in tumor weight at 50 mg/kg, po BID via gavage measured after 28 days (reference value: 2.14 g); assay type: functional; conditions: time 28 day
KARPAS-422 [11] = assay: Antitumor activity against human KARPAS-422 cells harboring EZH2 Y641N mutant xenografted in NCG mouse assessed as change in tumor weight at 100 mg/kg, po BID via gavage measured after 28 days (reference value: 2.14 g); assay type: functional; conditions: time 28 day

Histone-lysine N-methyltransferase, H3 lysine-36 specific (Homo sapiens), sequence (Q96L73 whole entry): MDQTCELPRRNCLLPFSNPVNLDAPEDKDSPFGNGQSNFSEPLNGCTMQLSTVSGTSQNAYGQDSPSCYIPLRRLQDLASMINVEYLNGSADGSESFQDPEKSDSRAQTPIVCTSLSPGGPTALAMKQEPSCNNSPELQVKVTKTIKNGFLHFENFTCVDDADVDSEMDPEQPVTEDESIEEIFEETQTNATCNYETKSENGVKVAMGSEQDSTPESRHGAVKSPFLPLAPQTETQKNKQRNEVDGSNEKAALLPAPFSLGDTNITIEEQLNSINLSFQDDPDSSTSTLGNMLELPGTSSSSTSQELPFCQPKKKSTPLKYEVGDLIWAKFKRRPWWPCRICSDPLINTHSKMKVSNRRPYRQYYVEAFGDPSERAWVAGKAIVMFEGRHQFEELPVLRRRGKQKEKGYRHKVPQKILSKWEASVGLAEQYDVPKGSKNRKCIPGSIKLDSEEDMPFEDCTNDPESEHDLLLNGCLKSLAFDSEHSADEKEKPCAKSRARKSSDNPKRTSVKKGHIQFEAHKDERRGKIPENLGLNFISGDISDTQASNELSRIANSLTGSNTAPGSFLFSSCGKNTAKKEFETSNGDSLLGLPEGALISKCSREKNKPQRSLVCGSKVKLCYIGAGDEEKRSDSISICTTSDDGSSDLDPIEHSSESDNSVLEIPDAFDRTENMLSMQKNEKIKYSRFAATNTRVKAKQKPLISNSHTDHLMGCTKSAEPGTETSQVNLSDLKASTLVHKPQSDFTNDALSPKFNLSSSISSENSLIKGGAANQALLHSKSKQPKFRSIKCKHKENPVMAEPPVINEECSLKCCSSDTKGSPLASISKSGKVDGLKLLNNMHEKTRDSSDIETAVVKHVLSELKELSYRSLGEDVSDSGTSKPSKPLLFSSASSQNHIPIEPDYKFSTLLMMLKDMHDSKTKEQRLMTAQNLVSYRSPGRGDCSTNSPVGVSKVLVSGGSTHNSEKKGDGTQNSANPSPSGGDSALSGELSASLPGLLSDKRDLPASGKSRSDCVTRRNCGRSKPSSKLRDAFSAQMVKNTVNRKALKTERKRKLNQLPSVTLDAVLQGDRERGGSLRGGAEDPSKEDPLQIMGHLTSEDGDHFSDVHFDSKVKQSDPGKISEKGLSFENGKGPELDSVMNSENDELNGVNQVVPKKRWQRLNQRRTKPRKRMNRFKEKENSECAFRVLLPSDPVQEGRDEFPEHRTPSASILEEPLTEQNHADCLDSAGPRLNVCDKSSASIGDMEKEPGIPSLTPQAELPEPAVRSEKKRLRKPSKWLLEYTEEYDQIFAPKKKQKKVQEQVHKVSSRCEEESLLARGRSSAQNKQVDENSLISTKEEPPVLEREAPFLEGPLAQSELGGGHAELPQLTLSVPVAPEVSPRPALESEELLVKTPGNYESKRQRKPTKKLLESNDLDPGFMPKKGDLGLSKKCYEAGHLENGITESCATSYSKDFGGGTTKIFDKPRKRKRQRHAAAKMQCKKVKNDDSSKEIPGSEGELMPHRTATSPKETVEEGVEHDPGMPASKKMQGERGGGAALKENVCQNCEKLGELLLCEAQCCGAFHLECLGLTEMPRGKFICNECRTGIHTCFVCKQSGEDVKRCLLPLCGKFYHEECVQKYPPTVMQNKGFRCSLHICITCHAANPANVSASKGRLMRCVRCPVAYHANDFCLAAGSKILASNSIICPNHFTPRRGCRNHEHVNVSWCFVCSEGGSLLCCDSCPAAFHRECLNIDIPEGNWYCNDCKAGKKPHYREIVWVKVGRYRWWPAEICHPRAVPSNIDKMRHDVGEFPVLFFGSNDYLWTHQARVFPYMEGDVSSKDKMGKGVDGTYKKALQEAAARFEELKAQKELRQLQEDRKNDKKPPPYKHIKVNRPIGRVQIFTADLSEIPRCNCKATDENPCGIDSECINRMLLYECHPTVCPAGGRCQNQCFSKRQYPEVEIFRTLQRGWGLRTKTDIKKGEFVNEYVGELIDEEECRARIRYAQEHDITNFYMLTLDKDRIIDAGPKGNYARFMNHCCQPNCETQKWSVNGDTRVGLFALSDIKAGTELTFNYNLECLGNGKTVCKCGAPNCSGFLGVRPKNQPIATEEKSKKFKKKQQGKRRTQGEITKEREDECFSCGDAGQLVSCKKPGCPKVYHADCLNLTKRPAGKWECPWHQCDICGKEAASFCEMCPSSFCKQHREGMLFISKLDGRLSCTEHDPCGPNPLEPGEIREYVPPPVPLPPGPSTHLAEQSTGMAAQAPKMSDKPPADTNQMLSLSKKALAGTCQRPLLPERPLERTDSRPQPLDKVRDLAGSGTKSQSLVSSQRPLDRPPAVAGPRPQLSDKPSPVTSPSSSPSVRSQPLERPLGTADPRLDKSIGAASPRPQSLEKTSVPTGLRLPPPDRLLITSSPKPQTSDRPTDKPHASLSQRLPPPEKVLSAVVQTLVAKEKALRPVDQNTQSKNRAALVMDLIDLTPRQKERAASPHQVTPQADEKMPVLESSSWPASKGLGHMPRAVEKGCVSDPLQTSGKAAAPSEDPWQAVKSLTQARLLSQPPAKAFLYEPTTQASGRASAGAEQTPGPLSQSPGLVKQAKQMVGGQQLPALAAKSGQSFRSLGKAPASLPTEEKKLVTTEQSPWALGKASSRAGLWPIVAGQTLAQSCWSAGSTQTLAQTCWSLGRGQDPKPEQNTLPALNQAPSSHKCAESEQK
Histone-lysine N-methyltransferase EZH2 (Homo sapiens), Q15910 [A677G], sequence (Q15910 whole entry A677G): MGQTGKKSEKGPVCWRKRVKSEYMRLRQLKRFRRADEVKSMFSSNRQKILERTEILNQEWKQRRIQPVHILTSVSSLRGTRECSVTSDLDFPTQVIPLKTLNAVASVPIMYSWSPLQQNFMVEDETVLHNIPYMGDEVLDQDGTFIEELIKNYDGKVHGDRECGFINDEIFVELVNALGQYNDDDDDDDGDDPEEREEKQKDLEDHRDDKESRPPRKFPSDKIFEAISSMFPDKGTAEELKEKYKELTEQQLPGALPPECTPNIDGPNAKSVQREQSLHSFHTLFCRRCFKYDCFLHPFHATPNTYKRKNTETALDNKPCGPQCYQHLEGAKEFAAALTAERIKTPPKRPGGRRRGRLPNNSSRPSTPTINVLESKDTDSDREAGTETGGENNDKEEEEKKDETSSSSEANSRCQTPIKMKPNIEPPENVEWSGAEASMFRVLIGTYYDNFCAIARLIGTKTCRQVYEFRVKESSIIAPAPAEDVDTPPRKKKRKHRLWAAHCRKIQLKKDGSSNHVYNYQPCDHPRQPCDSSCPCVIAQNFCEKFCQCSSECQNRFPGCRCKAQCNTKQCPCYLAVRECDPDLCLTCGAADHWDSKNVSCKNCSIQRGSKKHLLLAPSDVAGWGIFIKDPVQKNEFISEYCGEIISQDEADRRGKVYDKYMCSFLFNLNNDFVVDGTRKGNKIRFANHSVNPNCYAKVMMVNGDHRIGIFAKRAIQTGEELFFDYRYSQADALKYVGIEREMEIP
Protein arginine N-methyltransferase 6 (Homo sapiens), sequence (Q96LA8 whole entry, looked up): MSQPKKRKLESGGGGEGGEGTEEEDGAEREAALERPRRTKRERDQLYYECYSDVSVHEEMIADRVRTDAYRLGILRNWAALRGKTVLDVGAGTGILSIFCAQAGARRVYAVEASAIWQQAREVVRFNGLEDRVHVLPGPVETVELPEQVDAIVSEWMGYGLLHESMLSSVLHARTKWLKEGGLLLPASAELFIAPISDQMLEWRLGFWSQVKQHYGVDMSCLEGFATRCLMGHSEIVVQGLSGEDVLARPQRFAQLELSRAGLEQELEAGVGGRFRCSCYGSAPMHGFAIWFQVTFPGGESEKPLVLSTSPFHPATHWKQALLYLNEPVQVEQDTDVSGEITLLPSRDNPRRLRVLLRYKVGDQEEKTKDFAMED
N-lysine methyltransferase SMYD2 (Homo sapiens), sequence (Q9NRG4 whole entry): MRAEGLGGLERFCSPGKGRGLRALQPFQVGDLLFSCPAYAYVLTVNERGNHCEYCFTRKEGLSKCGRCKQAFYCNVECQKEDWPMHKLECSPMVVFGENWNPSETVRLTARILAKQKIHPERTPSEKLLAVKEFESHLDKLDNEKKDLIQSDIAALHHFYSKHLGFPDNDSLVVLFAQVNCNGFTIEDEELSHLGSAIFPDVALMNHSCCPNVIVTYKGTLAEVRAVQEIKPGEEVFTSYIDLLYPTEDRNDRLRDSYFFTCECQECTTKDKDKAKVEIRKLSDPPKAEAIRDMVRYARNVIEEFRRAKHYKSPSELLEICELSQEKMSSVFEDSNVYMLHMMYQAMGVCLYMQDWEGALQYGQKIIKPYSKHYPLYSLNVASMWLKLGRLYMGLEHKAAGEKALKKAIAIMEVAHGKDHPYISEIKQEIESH
Histone-lysine N-methyltransferase EZH1 (Homo sapiens), sequence (Q92800 whole entry): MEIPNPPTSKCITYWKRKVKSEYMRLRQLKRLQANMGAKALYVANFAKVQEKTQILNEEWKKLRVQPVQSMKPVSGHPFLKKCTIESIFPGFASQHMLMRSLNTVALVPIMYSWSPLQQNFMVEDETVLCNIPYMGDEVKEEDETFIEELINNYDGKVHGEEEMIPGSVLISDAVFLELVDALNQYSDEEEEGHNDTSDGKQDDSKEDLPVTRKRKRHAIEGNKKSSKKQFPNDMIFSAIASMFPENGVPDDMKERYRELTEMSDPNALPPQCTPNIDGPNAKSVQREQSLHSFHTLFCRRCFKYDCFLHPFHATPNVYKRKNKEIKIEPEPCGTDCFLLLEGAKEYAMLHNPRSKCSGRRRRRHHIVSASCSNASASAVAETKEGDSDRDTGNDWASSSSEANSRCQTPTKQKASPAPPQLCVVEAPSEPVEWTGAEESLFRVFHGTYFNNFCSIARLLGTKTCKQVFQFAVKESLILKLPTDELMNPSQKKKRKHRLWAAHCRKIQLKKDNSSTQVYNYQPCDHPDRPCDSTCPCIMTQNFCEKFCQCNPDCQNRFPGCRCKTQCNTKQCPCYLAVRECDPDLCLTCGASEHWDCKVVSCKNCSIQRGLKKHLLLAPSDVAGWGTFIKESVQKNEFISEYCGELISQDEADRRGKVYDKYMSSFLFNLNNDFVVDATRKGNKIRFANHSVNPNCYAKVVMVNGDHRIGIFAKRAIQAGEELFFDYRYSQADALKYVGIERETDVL

Q: For `CCN(C(=O)C1CC1)c1cc(-c2ccc(N3CCN(CC4CC4)CC3)nc2C)cc(C(=O)NCc2c(C)cc(C)[nH]c2=O)c1C`, which inhibition [1] is on record?
A: Its inhibition is 0%.

Q: And the inhibition [2]?
A: Its inhibition is 12%.

Q: What about the inhibition [3] of the same molecule?
A: The inhibition was 0%.

Q: What about the inhibition [4] of the same molecule?
A: The inhibition was 92%.

Q: What about the inhibition [5] of the same molecule?
A: Its inhibition is 87%.

Q: What about the inhibition in vivo at 100 mg/kg (Pfeiffer) of the same molecule?
A: Its inhibition in vivo at 100 mg/kg is 100%.

Q: And the inhibition in vivo at 50 mg/kg (KARPAS-422 [6])?
A: Its inhibition in vivo at 50 mg/kg is 47.7%.

Q: What about the bioavailability [7] of the same molecule?
A: The bioavailability was 27%.

Q: What about the Cmax [8] of the same molecule?
A: Its Cmax is 1240 ng/mL.

Q: And the AUC(0-t) at 24 h [9]?
A: Its AUC(0-t) at 24 h is 366 ng·h/mL.

Q: What about the Activity (KARPAS-422 [10]) of the same molecule?
A: The Activity was 1.17 g.

Q: What about the Activity (KARPAS-422 [11]) of the same molecule?
A: Its Activity is 0.64 g.
